Data set [1] deals with S. aureus ATCC 25923 biofilms. As to the kind of experiment: S. aureus biofilm killing, 96-well biofilm, AlamarBlue viability assay. The data set is classed as cell-based, Staphylococcus aureus. To be noted: 2 h. The method, then: Single colonies of S. aureus ATCC 25923 (American Type Culture Collection, Manassas, Va., USA) were immersed in 0.45% saline (Sigma Aldrich, Germany), adjusted to 1.0±0.1 McFarland units (3×10^8 colony forming units/ml), and diluted 1:15 in nutrient broth (Oxoid Ltd., England). The bacteria-broth mixture was added into 96-well plates at 150 μl per well (Costar®, Corning Incorporated, NY, USA). Incubation for 72 hours at 37° C. on a rotating plate set at 70 rpm (3D Gyratory Mixer, Ratek Instruments, Australia) assured extensive S. aureus biofilm growth.
Biofilms were washed twice with phosphate buffered saline (PBS, Sigma Aldrich, Germany) to remove planktonic cells, before treating the biofilms with various concentrations of i) Deferiprone (“Def”; 3-hydroxy-1,2-dimethylpyridin-4(1H)-one, Sigma Aldrich, Germany), ii) Gallium-Protoporphyrin (“GAPP”; Frontier Scientific, UT, USA), iii) a concurrent combination of both compounds and iv) a consecutive combination of both compounds. To prepare the treatments, Def was dissolved in water and GaPP was dissolved in an aqueous 0.03% solution of Tween® 80 (polyoxyethylene sorbitan […], Sigma Aldrich, Germany), i.e. above the critical micelle concentration (CMC) of Tween® 80 ([…]). Controls included bacterial wells without treatment (i.e. 100% bacterial growth, negative control), blank wells without bacteria (i.e. 0% growth, positive control) and bacterial wells with Tween® 80 treatment (as a control for GaPP dilutions). After 2 hours incubation of each treatment at 37° C. on a rotating plate, a second washing step with PBS followed to remove the treatments.
Bacterial viability was assessed using the AlamarBlue cell viability assay as described in Peeters, E. et al. (2008) Journal of Microbiological Methods, 72(2): p. 157-165. A 10% AlamarBlue dilution (Resazurin, Life Technologies, Australia) in nutrient broth was prepared and added to each well. Plates were incubated in the dark at 37° C. on a rotating plate. Fluorescence of Resorufin was measured hourly on a FLUOstar OPTIMA plate reader (BMG LABTECH, Germany). The method was set at bottom reading and fluorescence was measured at λexcitation 530 nm/λemission 590 nm. Maximum intensities were typically reached after 6 hours incubation and used for quantification according to Equation 1:
Bacterial viability was determined as the percentage of biofilm killing (% BK), where IC represents the fluorescence intensity of the controls (i.e. 100% bacterial growth) and IT indicates the maximum intensity of the treatments. Both IC and IT were corrected by the intensity of background (i.e. 0% bacterial growth).
In general terms: The colour change of resazurin is a common sign of viable cells or microbes.

The test system of data set [2] is planktonic S. aureus ATCC 25923. In words: Minimal inhibitory concentration, broth microdilution (Example 1). As to conditions: 20 hours, 37° C. The data set is classed as cell-based, Staphylococcus aureus. How it is done:
MIC values were assessed for the individual compounds Def and GaPP against planktonic S. aureus using standard methods, specifically colony suspension method and broth microdilution as described in Wiegand, I. et al. (2008) Nat Protoc, 3(2): p. 163-75. Briefly, single colonies of S. aureus ATCC 25923 were suspended in 0.45% saline and adjusted to 0.5 McFarland units. The bacterial suspension was 1:100 diluted with nutrient broth and plated into 96-well plates. Various treatment dilutions of Def and GaPP were added, followed by incubation of the plate at 37° C. for 20 hours. The MIC was determined as the lowest drug concentration preventing turbidity.

Data set [3] deals with L929 cells (mouse fibroblast cell line). In words: LDH cell viability test. The data set is classed as cell-based. As to conditions: 2 h. How it is done:
(§1) L929 cells (mouse fibroblast cell line) and Nuli-1 cells (human airway epithelial cell line) were obtained from ATCC (American Type Culture Collection, Manassas, Va., USA). The Nuli-1 cell line was cultured in Bronchial Epithelial Cell Growth Medium (Lonza, Australia) and L929 cells were grown in Dulbecco's Modified Eagle Medium (Sigma-Aldrich, Germany). Cells were maintained in a fully humidified incubator with 5% CO2 at 37° C.
(§2) The lactate dehydrogenase (LDH) bioassay (Roche Diagnostics Corporation, Indianapolis, Ind., USA) was performed to assess the cytotoxic effects of Def and GaPP. Briefly, cells were seeded at 1×10^4 into each well in 100 μl in quadruplicate wells of 96-well flat-bottom plates and incubated for 24 hours (37° C., 5% CO2) to allow attachment of cells. To assess the toxicity of the dual treatment, firstly, 100 μl of Def (20 mM) was added to each well. After 2 hours incubation, cells were washed three times with PBS and were exposed to different concentrations of GaPP (100, 200, 300, 400 and 500 μg/ml) for another 2 hours. In addition, cells were separately treated with either Def or GaPP for 2 hours. The OD was measured at 490 nm.

Data set [4] has as its system Nuli-1 cells (human airway epithelial cell line). As to the kind of experiment: LDH cell viability test. The data set is classed as cell-based. As to conditions: 2 h. How it is done:
as §1, §2

A further data set deals with S. aureus. As to the kind of experiment: Plate assay for anti-bacterial properties (agar holes filled with vehicle). The data set is classed as cell-based. As to conditions: in vehicle: 20 mM Def and/or 200 μg/ml GaPP, 24 hours. How it is done: To investigate the anti-bacterial properties of Def and GaPP individually, or with Def and GaPP in combination, a plate assay was used. Briefly, liquid nutrient agar was mixed with an aliquot of a S. aureus or Pseudomonas aeruginosa overnight culture and poured into Petri dishes. After the agar was solidified, holes (0.9 cm diameter) were punched into the agar and aspirated. Subsequently, the holes were filled with 200 μl of a vehicle with and without Def/GaPP. Following incubation at 37° C. for 24 hours, the inhibition diameter was assessed as a measure of efficacy against S. aureus or Pseudomonas aeruginosa bacteria.

Data set [5] can be described thus: Drug release from hydrogel into phosphate buffered saline. The data set is classed as physicochemical. The method, then:
Drug release: Five millilitre of gel was prepared in a Falcon tube and allowed to solidify, after which 10 ml release medium (phosphate buffered saline, Sigma Aldrich) was added. The tube was incubated at 37° C. on a rotating platform for 20 days. […] The concentration of […] quantified by UV-Vis spectroscopy (Evolution 201 UV-Vis Spectrophotometer, Thermo Fisher Scientific, Scoresby, VIC, Australia) at 280 nm and 405 nm, respectively, by interpolating from a standard curve.

The test system of data set [6] is planktonic S. aureus ATCC 25923. As to the kind of experiment: MIC of gel-released drugs, broth dilution (Example 6). The data set is classed as cell-based, Staphylococcus aureus. As to conditions: S. aureus 25923. How it is done: (§3) Bacterial strains: S. aureus ATCC 25923 was purchased from American Type Culture Collection (Manassas, Va., USA). Clinical MRSA isolate strains were obtained from Adelaide Pathology Partners (Mile End, SA, Australia).
(§4) The MIC was evaluated as the lowest drug concentration preventing bacterial growth.
(In broth dilution the organism is exposed to a series of concentrations in liquid medium.)

Data set [7] concerns planktonic clinical MRSA isolate MRSA a. The data set is described as above. The data set is classed as cell-based, Staphylococcus aureus. As to conditions: MRSA a (resistant to 4 antibiotics). How it is done: as §3, §4
The test system of data set [8] is planktonic clinical MRSA isolate MRSA b. The description is as above. The data set is classed as cell-based, Staphylococcus aureus. To be noted: MRSA b (resistant to 4 antibiotics). The method, then: as §3, §4
The test system of data set [9] is planktonic clinical MRSA isolate MRSA c. The description is as above. The data set is classed as cell-based, Staphylococcus aureus. As to conditions: MRSA c (resistant to 5 antibiotics). The method, then:
as §3, §4

The subject of data set [10] is planktonic clinical MRSA isolate MRSA d. The description is as above. The data set is classed as cell-based, Staphylococcus aureus. As to conditions: MRSA d (resistant to 7 antibiotics). The method, then:
as §3, §4

In data set [11] the test system is planktonic clinical MRSA isolate MRSA e. The data set is described as above. The data set is classed as cell-based, Staphylococcus aureus. As to conditions: MRSA e (resistant to 9 antibiotics). The method, then:
as §3, §4

The mark [12] stands for this setting: Staphylococcus aureus, read-out: minimal inhibitory concentration.

Results on 2 molecules are retold here after US11298364B2, “Methods and products for preventing and/or treating microorganism infections comprising iron chelators and non-iron porphyrins” (The University of Adelaide, priority 2015, dated 2022).

For `C=CC1=C(C)C2=[N+]3C1=Cc1c(C)c(C=C)c4[n]1[Ga-]31[n]3c(c(C)c(CCC(=O)O)c3=CC3=[N+]1C(=C4)C(C)=C3CCC(=O)O)=C2` (stereo not shown) [GaPP, gallium-protoporphyrin IX], the “Biofilm killing (%) by single treatment GaPP” value is on record as 9.04% in data set [1] (GaPP 1 μg/ml); 32.18% in [1] (GaPP 5 μg/ml); 41.99% in data set [1] (GaPP 10 μg/ml); 52.90% in [1] (GaPP 50 μg/ml); 69.86% in data set [1] (GaPP 100 μg/ml). The molecule further had an MIC in data set [2] of 0.4 µg/mL. For the same molecule, the “cell viability (LDH assay) vs negative control” value in [3] (GaPP 500 μg/ml) is listed as “induced cell toxicity”; in [3] (GaPP 100-400 μg/ml), “no significant effect”; in data set [4] (GaPP 500 μg/ml), “induced cell toxicity”; in data set [4] (GaPP 100-400 μg/ml), “no significant effect”. Moreover, the “anti-bacterial activity (inhibition on plate)” value in the data set on S. aureus is listed as “significant anti-bacterial activity”. Further, the “release of GaPP (percentage of the original concentration in the gel)” value in [5] (after 460 hours, 37° C., PBS) is 20-25%. Further, in data set [5] (after 20 days), the “incorporated GaPP released from the hydrogel” value is listed as “approximately 25%”. For the same molecule, the minimal inhibitory concentration in data set [6] is 0.90 µg/mL; in [7], 1.48 µg/mL; in [8], 0.74 µg/mL; in [9], 1.48 µg/mL; in [10], 1.48 µg/mL; in data set [11], 1.48 µg/mL.
In the case of `Cc1c(O)c(=O)ccn1C` [Def, 3-hydroxy-1,2-dimethylpyridin-4(1H)-one, reference compound], the “Biofilm killing (%) by single treatment Def” value in data set [1] (Def 0.5 mM) came out at 6.09%; in [1] (Def 1.5 mM) it was 7.65%; in data set [1] (Def 5 mM), 12.07%; in data set [1] (Def 10 mM), 22.88%; in data set [1] (Def 20 mM), 34.00%. Further, in data set [1] (Def at concentrations above 20 mM), the biofilm reduction plateau entry is “approximately 34%”. For the same molecule, the MIC in [2] (Staphylococcus aureus, ATCC25923, read-out: MIC) was found to be 2500 µM; in data set [6] (Staphylococcus aureus, ATCC25923, read-out: minimal inhibitory concentration), 28 µg/mL; in data set [7] (setting [12]), 56 µg/mL; in data set [8] (setting [12]), 56 µg/mL; in data set [9] (setting [12]), 56 µg/mL; in [10] (setting [12]), 56 µg/mL. Also, the MIC in [11] (setting [12]) came to 56 µg/mL. Also, the “cell viability (LDH assay) vs negative control” value in data set [3] (Def 20 mM) and in data set [4] (Def 20 mM) was “no statistically significant difference” in each case. In the data set with S. aureus, the “anti-bacterial activity (inhibition on plate)” value is “relatively little anti-bacterial activity”. Besides, the “time to complete release from hydrogel” value in data set [5] (37° C., PBS) is 48 to 72 h. Moreover, in [5] (after approximately 48-72 hours, 37° C., PBS), the “release of Def (percentage of the original concentration in the gel)” value came to 100%.
